Molecules are shown by their SMILES.

The source of these data is patent publication US20110098219A1, “System for Curing Hepatic Cancer with Leptin” (KAOHSIUNG MEDICAL UNIVERSITY, priority 2009, published 2011).

In one data set the test system is JAK/STAT path. Briefly: Western blotting of JAK/STAT path proteins in liver cancer cells. It counts as cell-based. The following applies: 24 hours. The protocol:
Please refer to FIG. 11, which is a view showing expression of JAK/STAT path after applied with a drug. As shown in the figure, the preferred embodiment analyzes related proteins of liver cancer cells through western blotting after applied with MPA+leptin for 24 hours.
Please refer to FIG. 13A and FIG. 13A, which are views showing expressions of proteins of JAK/STAT path and proteins of MAPK path after applied with a drug for a short time. As shown in the figures, the preferred embodiment processes liver cancer cells with high-dose leptin, high-dose MPA and high-dose leptin combined with high-dose MPA for 30 minutes. Then, related JAK/STAT proteins are collected for analyzing their expressions through western blotting.
Please refer to FIG. 14, which is a view showing reduced p-STAT3 degradation by suppressing the ERK1/2 activation and the PIAS3 expression. […] The preferred embodiment uses a 10^−6M p-ERK1/2 inhibitor (U0126) for 4 hours before a drug is applied; then, liver cancer cells are applied with the drug of MPA+leptin for 3 hours to collect cellular proteins for analyzing expression of related proteins through western blotting. […] As a conclusion, MPA activates ERK1/2 to indirectly induce PIAS3 expression for suppressing p-STAT3 (Tyr705) for cell apoptosis, where leptin enhances activation of ERK1/2 with MPA for increasing cell apoptosis.
Please refer to FIG. 15A to FIG. 16B, which are views showing cells containing very much leptin within; suppressed growth of the cells by using MPA; and STAT3- and MAPK-signal paths of the cells after MPA is applied. […] Then, after the cells are processed with 10^−4M MPA for 24 hours, cell growth is analyzed through XTT assay. […] Then, after the cells are processed with 10^−4 M MPA for 24 hours, JAK/STAT-related proteins are analyzed through western blotting.
(In general: Immunoblotting shows a protein as a band on a membrane.)

Data set [1] relates to epithelial cell line of normal liver (THLE-3). Briefly: XTT assay, survival of normal liver epithelial cell line. The following applies: THLE-3, FIG. 17A. It counts as cell-based. The protocol: Please refer to FIG. 17A to FIG. 18B, which are views showing epithelial cell line of normal liver treated with MPA+leptin for 24 hours and 48 hours respectively; and views showing STAT3- and MAPK-related signal paths after treating cell line of normal liver with MPA+leptin. As shown in the figures, after epithelial cell line of normal liver (THLE-3) is applied with MPA+leptin for […], MPA+leptin's effect on cell growth (i.e. survival rate) is analyzed through XTT assay. […] Besides, in FIG. 18A and FIG. 18B, protein expressions for STAT- and MAPK-related signal paths are analyzed.
On the technique in general: Tetrazolium dyes change colour on reduction, which living cells bring about.

Take `CC(=O)O[C@]1(C(C)=O)CC[C@H]2[C@@H]3C[C@H](C)C4=CC(=O)CC[C@]4(C)[C@H]3CC[C@@]21C` [MPA, medroxyprogesterone acetate]: the “p-ob-R, ob-R and PgR expression” value in the data set on JAK/STAT path is listed as “suppresses”. In addition, in the data set with JAK/STAT path (pcLeptin-transfected cells, 10^-4 M MPA), the “activation of STAT3 compared with cells without much leptin” value is “more obviously suppressed”. In addition, the “effect on survival rate of, and poisoning of, normal liver epithelial cells” value in data set [1] is recorded as “no obvious effect”.
